Measured values from patent publication US6403123B1, “Method for topical treatment of anthralin-responsive dermatological disorders” (priority 2000, dated 2002).

Assays:
Type in all cases: in vivo, human
psoriasis [1] = assay: Topical treatment of psoriasis patients by the method: anthralin formulation, then wax formulation, then talc powder; conditions: person
From the text: In accordance with the present invention, the anthralin formulation is first topically applied to the involved skin area, or skin lesions, such as psoriatic plaques or eczema, of a patient in need of such treatment. […] The anthralin formulation may be applied by any means which provides a relatively uniform layer of anthralin formulation on the involved area. Suitable means of application include spraying, roll-on, and application using a brush, saturated cotton gauze, pad, sponge-tipped applicator, and the like. As the anthralin formulation penetrates into the lesions or evaporates, any unabsorbed anthralin formulation on the lesion surface can be wiped off with a tissue, paper towel, cloth or the like. Thereafter, a wax formulation is applied to the lesion to cover the anthralin formulation-treated area. The wax formulation may be applied using any application method that allows for applying a relatively uniform layer of the wax formulation. Such application methods include, but are not limited to, spraying, roll-on, and application by brush, cotton gauze, pad, sponge-tipped applicator, and the like. As the vehicle(s) of the wax formulation evaporate, a thin film of wax will be formed to cover the lesion surface of the involved area. […] Finally, a powder, such as talc, may then be optionally applied over the wax film in order to eliminate any remaining anthralin thereby further ensuring that staining of clothing or other objects is avoided. […] The powder may be applied by dusting using a puff or pad, sprinkling, spreading and the like. The method was typically carried out as follows. A liquid anthralin formulation as formulated in Example 1(A) was topically applied to skin lesions once to twice daily by the patient using a saturated cotton pad. As the anthralin penetrated into the lesions and the solvents evaporated, a tissue or paper towel was used to wipe off excess materials from the surface of the lesions. The wax formulation as formulated in Example 2(B) was topically applied to the lesions. […]

[2] = Staining of skin and clothing and skin irritation during the topical anthralin method
From the text: As the anthralin formulation penetrates into the lesions or evaporates, any unabsorbed anthralin formulation on the lesion surface can be wiped off with a tissue, paper towel, cloth or the like. Thereafter, a wax formulation is applied to the lesion to cover the anthralin formulation-treated area. The wax formulation may be applied using any application method that allows for applying a relatively uniform layer of the wax formulation. Such application methods include, but are not limited to, spraying, roll-on, and application by brush, cotton gauze, pad, sponge-tipped applicator, and the like. As the vehicle(s) of the wax formulation evaporate, a thin film of wax will be formed to cover the lesion surface of the involved area. There are two advantages to the presence of the wax film: (a) the thin wax film will act as an occlusive backing to drive the penetration of anthralin deeper into the lesions; and (b) the wax film will prevent any trace amounts of anthralin from contacting clothing or other objects.
Finally, a powder, such as talc, may then be optionally applied over the wax film in order to eliminate any remaining anthralin thereby further ensuring that staining of clothing or other objects is avoided. […]

psoriasis [3] = assay: Earlier or concurrent treatment of the psoriasis subjects with other drugs (case histories); conditions: person

## O=C1c2c(O)cccc2Cc2cccc(O)c21 [anthralin, 1,8,9,-anthracenetriol]
Psoriasis [1]; Example 6, anthralin 0.2% increased to 1% by weight, once daily, maintained over one year
  improvement of the psoriasis: approximately 90%
Psoriasis [1]; Example 7, anthralin 0.3% increased to 0.6% by weight, once daily, after four months
  skin free of psoriasis: approximately 90%
Psoriasis [1]; Example 8, small plaque psoriasis, 3% anthralin formulation once daily, after four months
  improvement of psoriatic lesions: approximately 75%
[2]; Example 10, 0.25% anthralin, wax formulation Example 2(B), fine talc, twice a day for four weeks
  staining of clothes: no staining of their clothes
[2]; typical case, about 0.1% to about 0.2% by weight anthralin, once or twice daily on chronic psoriatic plaques
  skin irritation and staining to the skin and clothing: without skin irritation and staining to the skin and clothing

## C=C1/C(=C\C=C2/CCC[C@]3(C)[C@@H]([C@H](C)/C=C/[C@@H](O)C4CC4)CC[C@@H]23)C[C@@H](O)C[C@@H]1O [calcipotriene]
Psoriasis [3]; Example 6, plaque psoriasis for four years, topical treatment
  response of plaque psoriasis: did not improve well
Psoriasis [3]; Example 7, psoriasis for seventeen years, topical treatment
  response of generalized small plaque psoriasis: did not respond

## CN(Cc1cnc2nc(N)nc(N)c2n1)c1ccc(C(=O)N[C@@H](CCC(=O)O)C(=O)O)cc1 [methotrexate]
Psoriasis [3]; Example 5, generalized plaque psoriasis, intramuscular injections every one to four weeks
  improvement of lesions: approximately 50%
